Article PMC7488365 (Acta Pharmaceutica Sinica. B, 2019)

What was measured:
[1] = test system: HGC-27 cells; experiment: MTT cell viability assay, HGC-27; settings: Homo sapiens, HGC-27, 72 h, read-out: IC50 cell viability HGC-27
[2] = test system: HGC-27 cells; experiment: Annexin V-FITC/PI apoptosis analysis; assay type: cell-based, human
[3] = test system: GES-1 cells; experiment: cells; settings: Homo sapiens, GES1, 72 h, read-out: IC50 cell viability GES-1
[4] = target: T1, USP28 (Homo sapiens, UniProt Q96RU2); experiment: biochemical; assay type: biochemical; settings: read-out: Inhibition rate at 12.5 μmol/L (%)
T1 sequence (Q96RU2 1-700): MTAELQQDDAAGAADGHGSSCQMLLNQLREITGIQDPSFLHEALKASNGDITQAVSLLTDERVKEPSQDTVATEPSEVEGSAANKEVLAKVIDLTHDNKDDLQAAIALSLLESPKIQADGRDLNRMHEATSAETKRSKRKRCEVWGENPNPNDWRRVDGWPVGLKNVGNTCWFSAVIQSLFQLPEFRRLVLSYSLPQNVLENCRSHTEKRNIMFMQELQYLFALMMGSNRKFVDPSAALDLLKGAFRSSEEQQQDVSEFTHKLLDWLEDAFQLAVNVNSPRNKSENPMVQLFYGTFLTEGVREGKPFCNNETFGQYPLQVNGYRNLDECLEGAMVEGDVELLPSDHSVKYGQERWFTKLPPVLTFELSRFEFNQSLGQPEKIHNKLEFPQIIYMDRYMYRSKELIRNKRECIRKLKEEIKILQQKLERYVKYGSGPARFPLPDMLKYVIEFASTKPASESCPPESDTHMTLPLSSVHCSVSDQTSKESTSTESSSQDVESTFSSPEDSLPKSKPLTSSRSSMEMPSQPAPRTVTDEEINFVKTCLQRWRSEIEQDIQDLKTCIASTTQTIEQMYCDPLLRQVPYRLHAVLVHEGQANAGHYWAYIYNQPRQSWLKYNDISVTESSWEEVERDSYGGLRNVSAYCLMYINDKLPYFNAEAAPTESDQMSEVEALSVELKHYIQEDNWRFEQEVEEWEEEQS

[5] = target: USP7 (Homo sapiens, UniProt Q93009); experiment: Enzymatic inhibitory activity against USP7; assay type: biochemical
Sequence of USP7 (Q93009 whole entry, species assumed): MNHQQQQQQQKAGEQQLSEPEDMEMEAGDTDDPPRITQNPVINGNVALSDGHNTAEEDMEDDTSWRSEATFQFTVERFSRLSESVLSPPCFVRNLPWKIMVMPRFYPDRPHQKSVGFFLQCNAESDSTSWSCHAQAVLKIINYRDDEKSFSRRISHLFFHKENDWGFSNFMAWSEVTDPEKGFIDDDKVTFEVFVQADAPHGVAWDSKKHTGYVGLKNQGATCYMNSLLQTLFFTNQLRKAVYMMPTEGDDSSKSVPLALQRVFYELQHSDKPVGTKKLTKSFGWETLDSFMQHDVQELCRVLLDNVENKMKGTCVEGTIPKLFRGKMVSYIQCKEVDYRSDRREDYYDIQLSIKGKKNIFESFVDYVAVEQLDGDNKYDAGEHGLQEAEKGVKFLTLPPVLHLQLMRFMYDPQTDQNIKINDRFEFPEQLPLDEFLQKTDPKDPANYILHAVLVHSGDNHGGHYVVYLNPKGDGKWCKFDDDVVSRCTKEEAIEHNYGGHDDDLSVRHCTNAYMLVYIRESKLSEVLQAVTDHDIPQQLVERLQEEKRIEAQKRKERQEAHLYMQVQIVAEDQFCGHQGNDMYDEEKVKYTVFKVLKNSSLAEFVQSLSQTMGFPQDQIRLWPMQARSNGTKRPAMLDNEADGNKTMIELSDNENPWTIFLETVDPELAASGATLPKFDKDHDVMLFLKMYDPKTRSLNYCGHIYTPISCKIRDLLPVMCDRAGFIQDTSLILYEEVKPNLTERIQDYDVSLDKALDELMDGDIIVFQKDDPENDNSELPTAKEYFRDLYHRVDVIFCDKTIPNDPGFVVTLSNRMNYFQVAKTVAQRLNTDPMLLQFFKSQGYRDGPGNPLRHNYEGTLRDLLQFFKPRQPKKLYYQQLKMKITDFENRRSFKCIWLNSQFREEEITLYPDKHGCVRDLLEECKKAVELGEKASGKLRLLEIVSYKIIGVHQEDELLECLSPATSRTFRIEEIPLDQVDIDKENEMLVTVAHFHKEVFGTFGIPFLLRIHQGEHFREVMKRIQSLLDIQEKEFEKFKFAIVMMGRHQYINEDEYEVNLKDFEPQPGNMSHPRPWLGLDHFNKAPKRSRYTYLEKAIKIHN

[6] = test system: MKN45 cells; experiment: cells; settings: Homo sapiens, MKN-45, 72 h, read-out: IC50 cell viability MKN45
[7] = target: LSD1 (Homo sapiens, UniProt O60341); experiment: Enzymatic inhibitory activity against LSD1; assay type: biochemical
[8] = target: T1, USP28; experiment: Bio-layer interferometry; assay type: binding
[9] = test system: MGC-803 cells; experiment: cells; settings: Homo sapiens, MGC-803, 72 h, read-out: IC50 cell viability MGC-803
[10] = test system: HGC-27 cells; experiment: EdU incorporation assay; assay type: cell-based, human
[11] = test system: HGC-27 cells; experiment: Cell cycle assay; assay type: cell-based, human; settings: HGC-27, 24 h
[12] = target: T2, USP28 in HGC-27 cells (Homo sapiens, UniProt Q96RU2); experiment: Cellular thermal shift target engagement assay, HGC-27; assay type: cell-based; settings: HGC-27, 0.75 μmol/L, 3 h, 60 °C
T2 sequence (Q96RU2 1-1077): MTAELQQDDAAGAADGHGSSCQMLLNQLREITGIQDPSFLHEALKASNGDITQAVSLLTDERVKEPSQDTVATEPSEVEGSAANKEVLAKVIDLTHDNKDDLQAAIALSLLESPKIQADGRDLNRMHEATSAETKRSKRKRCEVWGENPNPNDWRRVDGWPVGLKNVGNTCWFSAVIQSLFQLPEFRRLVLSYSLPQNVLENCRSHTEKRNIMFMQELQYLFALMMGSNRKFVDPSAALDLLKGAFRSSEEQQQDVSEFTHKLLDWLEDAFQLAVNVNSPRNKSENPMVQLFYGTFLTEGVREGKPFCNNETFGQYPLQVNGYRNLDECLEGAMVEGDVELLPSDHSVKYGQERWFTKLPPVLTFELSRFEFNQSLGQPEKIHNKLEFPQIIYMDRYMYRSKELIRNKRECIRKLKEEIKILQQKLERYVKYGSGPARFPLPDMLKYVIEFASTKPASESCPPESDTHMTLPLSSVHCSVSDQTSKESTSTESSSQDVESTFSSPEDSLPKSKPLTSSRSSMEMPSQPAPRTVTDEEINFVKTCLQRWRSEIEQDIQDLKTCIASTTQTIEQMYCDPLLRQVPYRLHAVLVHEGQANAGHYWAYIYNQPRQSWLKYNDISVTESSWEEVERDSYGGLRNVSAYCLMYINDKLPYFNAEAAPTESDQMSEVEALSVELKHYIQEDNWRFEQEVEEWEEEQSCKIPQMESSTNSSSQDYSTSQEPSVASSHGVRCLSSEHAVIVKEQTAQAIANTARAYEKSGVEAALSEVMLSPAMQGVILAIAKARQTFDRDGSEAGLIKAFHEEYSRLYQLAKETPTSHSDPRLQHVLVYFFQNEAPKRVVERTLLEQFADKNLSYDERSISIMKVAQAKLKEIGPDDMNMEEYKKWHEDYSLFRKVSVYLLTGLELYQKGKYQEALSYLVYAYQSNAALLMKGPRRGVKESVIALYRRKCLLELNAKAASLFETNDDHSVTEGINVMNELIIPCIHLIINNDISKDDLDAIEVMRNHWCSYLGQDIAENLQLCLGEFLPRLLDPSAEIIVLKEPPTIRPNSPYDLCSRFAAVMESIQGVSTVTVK

[13] = test system: HGC-27 cells; experiment: Transwell migration assay, HGC-27; assay type: cell-based, human; settings: HGC-27, 48 h
[14] = test system: MGC-803 cells; experiment: Transwell migration assay, MGC-803; assay type: cell-based, human; settings: MGC-803, 48 h
[15] = target: T3, USP28 in MGC-803 cells (Homo sapiens, UniProt Q96RU2); experiment: Cellular thermal shift target engagement assay, MGC-803; assay type: cell-based; settings: MGC-803, 0.75 μmol/L, 3 h, 60 °C
T3 sequence (Q96RU2 1-1077): T2 sequence (Q96RU2 1-1077)

[16] = test system: HGC-27 cells; experiment: Colony formation, HGC-27; assay type: cell-based, human; settings: HGC-27, 0.75, 1.5 and 3.0 μmol/L, 8 days
[17] = test system: USP28, LSD1 and total c-Myc in HGC-27 cells; experiment: Western blotting of USP28, LSD1 and total c-Myc; assay type: cell-based, human; settings: HGC-27, 3 h, Western blotting
[18] = test system: MGC-803 cells; experiment: Wound healing assay, MGC-803; assay type: cell-based, human; settings: MGC-803, 48 h
[19] = test system: HGC-27 cells; experiment: Wound healing assay, HGC-27; assay type: cell-based, human; settings: HGC-27, 48 h
[20] = test system: MGC-803 cells; experiment: Colony formation, MGC-803; assay type: cell-based, human; settings: MGC-803, 0.75, 1.5 and 3.0 μmol/L, 8 days

- inhibition at 12.5 µM [4]: 90%
- IC50 [5]: > 100 µM
- IC50 [6]: 1.49 ± 0.98 µM
- IC50 [7]: > 100 µM
- Kd [8]: 0.04 µM
- IC50 [9]: 4.95 ± 0.33 µM
- USP28 thermal stabilization (CTSA) [12]: stabilized
- USP28 thermal stabilization (CTSA) [15]: stabilized
Structure (SMILES): CCCSc1nc(NCCN)c2nnn(Cc3ccc(Cl)cc3)c2n1 [Compound 19, N^1-(3-(4-Chlorobenzyl)-5-(propylthio)-3H-[1,2,3]triazolo[4,5-d]pyrimidin-7-yl)ethane-1,2-diamine]
- IC50 [1]: 0.61 ± 0.45 µM
- apoptotic rate (Annexin V-FITC/PI, Q2) ([2]; HGC-27, 0.18 μmol/L): 6.5%
- apoptotic rate (Annexin V-FITC/PI, Q2) ([2]; HGC-27, 0.37 μmol/L): 9.3%
- apoptotic rate (Annexin V-FITC/PI, Q2) ([2]; HGC-27, 0.75 μmol/L): 10.5%
- apoptotic rate (Annexin V-FITC/PI, Q2) ([2]; HGC-27, 1.5 μmol/L): 21.2%
- IC50 [3]: 9.19 ± 1.15 µM
- DNA proliferation (EdU) [10]: suppressed DNA proliferation
- percentage of cells in S phase ([11]; 0.18 μmol/L): 36.02%
- percentage of cells in S phase ([11]; 0.37 μmol/L): 38.58%
- percentage of cells in S phase ([11]; 0.75 μmol/L): 39.27%
- percentage of cells in S phase ([11]; 1.5 μmol/L): 42.98%
- cell migration (Transwell) [13]: apparently inhibited cell migration
- cell migration (Transwell) [14]: apparently inhibited cell migration
- colony formation [16]: dose-dependently inhibited colony formation
- USP28 expression [17]: decreased in a dose-dependent manner
- protein levels of LSD1 and total c-Myc [17]: decreased correspondingly
- wound healing [18]: apparently suppressed the wound healing
- wound healing [19]: apparently suppressed the wound healing
- colony formation [20]: dose-dependently inhibited colony formation
